Assay results published in patent US20210252015A1, “CERTAIN (2S)-N-[(1S)-1-CYANO-2-PHENYLETHYL]-1,4-OXAZEPANE-2-CARBOXAMIDES FOR TREATING INFLAMMATORY BOWEL DISEASE” (Insmed Incorporated, priority 2018, published 2021).

Test system: colitis induced by the adoptive transfer of sorted naïve T cells into RAG2−/− mice
Assay: Adoptive T-Cell Transfer Colitis Model, Example 2 (survival, endoscopy, stool consistency, body weight)
Type: in vivo
Description: The efficacy of INS1007 in the treatment of colitis induced by the adoptive transfer of sorted naïve T cells into RAG2^−/− mice (“Adoptive T-Cell Transfer Colitis Model”) was evaluated. The Adoptive T-Cell Transfer Colitis Model is an immunological animal model of colitis that provides focused and detailed examination of T cell-mediated pathological mechanisms, and generally responds well to established clinical therapies such as anti-TNFα. The model is described in detail in D. V. Ostanin, et al., T cell transfer model of chronic colitis: concepts, considerations, and tricks of the trade. Am. J. Physiol. Gastrointest. Liver Physiol. 2009; 296(2): G135-46, which is hereby incorporated by reference in its entirety for all purposes.
Example 2 evaluated the effectiveness of INS1007 dosed at 0.3 mg/kg, 1.0 mg/kg, 3.0 mg/kg and 10 mg/kg in the Adoptive T-Cell Transfer Colitis Model. Vehicle (negative control) and an anti-p40 mAb antibody (positive control) were also evaluated.
Mice: Ninety-five (95) male RAG2^−/− mice (n=95) with an average starting body weight (±SEM) of 21.3±0.12 g were obtained from Taconic Biosciences (Germantown, N.Y.). Animals were acclimatized prior to study commencement. During this period, the animals were observed daily in order to reject any that presented in poor condition. Animals were fed with 5053 sterile rodent diet and water was provided ad libitum.
INS1007 Solutions: INS1007 was diluted with 0.5% Hydroxypropylmethylcellulose in Citrate buffer w/0.1% Tween 80 (pH 3.0). Solutions were stored at 4° C. INS1007 solutions were discarded after 3 days and fresh solutions were prepared.
Anti-p40 mAb solution: Anti-mouse IL-12 p40 (Clone: C17.8) obtained from BioXCell (Cat #: BE0051) was diluted with phosphate buffered saline. Solutions were stored at 4° C. Anti-mouse IL-12 p40 solutions were discarded after 7 days and fresh solutions were prepared.
Groups 1-2 were negative controls; groups 3-6 were treated with INS 1007 and Group 7 was treated with Anti-p40 mAb.
The study included two phases: a T-cell transfer colitis-induction period (T-cell engraftment in FIG. 14) and a treatment period (Veh/1007 TX in FIG. 14). Colitis was induced on Day 0 in 90 RAG2^−/− mice by IP injection (200 μL) of 0.5×10^6 CD44^−/CD62L^+ T-cells (in PBS) isolated and purified from C57Bl/6 […]. Donor cells were processed as follows. Whole spleens were excised from donor C57BL/6 mice and were immediately placed ice-cold PBS. The spleens were dissociated to yield a single cell suspension and the red blood cells were lysed. Spleens were then processed for CD4+ enrichment prior to CD44-CD62L^+ sorting using Miltenyi MACS columns.
Animals in Groups 1-6 were dosed via oral gavage (PO) twice daily (BID) from Days 14 to 41 with INS1007 Solution or vehicle, as indicated in Table 4. Animals in Group 7 were dosed via intraperitoneal (IP) injection once every third day (Q3D) from Day 14 to 39 with Anti-p40 mAb solution.
Animals were observed daily (weight morbidity, survival, presence of diarrhea and/or bloody stool) to assess differences among treatment groups and/or possible toxicity resulting from the treatments.
Each mouse, under isoflurane anesthesia, underwent video endoscopy on Days 14, 28, and 42 using a small animal endoscope (Karl Storz Endoskope, Germany), to assess colitis severity. During each endoscopic procedure, still images and video were recorded to evaluate the extent of colitis and the response to treatment. Colitis severity and Stool consistency were scored using the methods described in Examples 1 and 2. Following endoscopy on day 42, all animals from each treatment group were sacrificed. Following euthanasia, bone marrow (from both femurs and tibias) were collected, lysed, and then snap frozen. The frozen tissue was stored at −80° C.
Weight Loss: Weight loss calculated as a percentage of the starting weight on Day 0 was recorded in all treatment groups.

[1] = Day 28, INS1007 1 mg/kg (Group 4)
[2] = Day 28, INS1007 3 mg/kg (Group 5)
[3] = Day 28, INS1007 10 mg/kg (Group 6)
[4] = Day 42, INS1007 1 mg/kg (Group 4)
[5] = Day 42, INS1007 3 mg/kg (Group 5)
[6] = Day 42, INS1007 10 mg/kg (Group 6)

Compound: Cn1c(=O)oc2ccc(-c3ccc(C[C@@H](C#N)NC(=O)[C@@H]4CNCCCO4)cc3)cc21 [INS1007, (2S)—N-{(1S)-1-cyano-2-[4-(3-methyl-2-oxo-2,3-dihydro-1,3-benzoxazol-5-yl)phenyl]ethyl}-1,4-oxazepane-2-carboxamide]
- reduction in mean endoscopy score as compared to vehicle control (Group 2) (Day 14, INS1007 3 mg/kg (Group 5)): 22.2%
- mean stool consistency score vs vehicle control (Group 2) [1]: reductions
- reduction in mean endoscopy score as compared to vehicle control (Group 2) [1]: 38.4%
- mean stool consistency score vs vehicle control (Group 2) [2]: reductions
- reduction in mean endoscopy score as compared to vehicle control (Group 2) [2]: 39.5%
- mean stool consistency score vs vehicle control (Group 2) [3]: reductions
- reduction in mean endoscopy score as compared to vehicle control (Group 2) [3]: 15.3%
- mean stool consistency score vs vehicle control (Group 2) [4]: reductions
- reduction in mean endoscopy score as compared to vehicle control (Group 2) [4]: 33.5%
- mean stool consistency score vs vehicle control (Group 2) [5]: reductions
- reduction in mean endoscopy score as compared to vehicle control (Group 2) [5]: 42.7%
- mean stool consistency score vs vehicle control (Group 2) [6]: largest reductions
- reduction in mean endoscopy score as compared to vehicle control (Group 2) [6]: 35.0%
- weight loss compared to vehicle control (Group 2), body weight carried forward (INS1007 3 mg/kg (Group 5), Days 0 to 42): reduced
- survival vs vehicle control (INS1007 3 mg/kg (Group 5), log-rank test): significantly improved
- survival (INS1007 3 mg/kg PO BID Day 14 to 41 (Group 5), Days 0 to 42, vehicle control 53.3%): 95.86%
